Measured values from patent US20120263719A1, “COMPOSITIONS AND METHODS FOR TREATING ASPERGILLOSIS” (priority 2009, published 2012).
Converted amounts (≈) assume the structure as drawn. Where two headings read alike, the source gives them in different places.

How the values were obtained:
AF-infected mice = test: Animal survival experiment in AF-infected immunosuppressed mice (36 days); assay type: in vivo; settings: group 8: 1 mg/kg i.t.
Aspergillus fumigatus = test: In vitro antifungal activity (NCCLS M27-A; MIC/MFC, hyphal growth); assay type: cell-based; settings: for MFC: Aspergillus fumigatus
Experimental: The antifungal activity of mAb (MPS5.44)-alliinase conjugates was determined according to the conditions of National Committee for Clinical Laboratory Standards (NCCLS) document M27-A. Resting conidia (3×10^4 conidia/well) were seeded in 96-well plates and incubated for 4 hours at 37° C. with RPMI/MOPS (100 μl). mAb-alliinase conjugate was applied in serial 2-fold dilutions, in triplicates and incubated for 30 min at 37° C., then washed four times followed by the addition of alliin (0.5 mg/ml). Hyphal growth was monitored by microscopic observation as well as by optical density (OD595), or by fluorescence of the strain CBS/DsRed (excitation at 540 nm, emission at 595 nm). The MIC of the conjugate was determined after 72 hours. The wells in which no fungal germination was detected, were scraped and plated on Sabouraud plates and the number of colonies was counted after 72 hours to determine the MFC. As a control, the antifungal activity was also determined by incubating AF as above with non-conjugated alliinase or with conjugates consisting of the non-specific mAb and alliinase.

With C[C@@H]1[C@H](O)[C@@H](C)/C=C/C=C/C=C/C=C/C=C/C=C/C=C/[C@H](O[C@@H]2O[C@H](C)[C@@H](O)[C@H](N)[C@@H]2O)C[C@@H]2O[C@](O)(C[C@@H](O)C[C@@H](O)[C@H](O)CC[C@@H](O)C[C@@H](O)CC(=O)O[C@H]1C)C[C@H](O)[C@H]2C(=O)O [Amphotericin B] the MST (AF-infected mice; n=10) was 18 days and the “survival at the end of the experiment” value (AF-infected mice; n=10, 36 d) was 30%.
With C=CCS[S+]([O-])CC=C (stereo not drawn) [allicin, diallyl-dithiosulfinate] the MFC (Aspergillus fumigatus; read-out: MFC, resting conidia) was 15 µg/mL (≈ 92.4 µM), the MFC (Aspergillus fumigatus; read-out: MFC, swollen conidia) was 7.5 µg/mL (≈ 46.2 µM) and the MFC (Aspergillus fumigatus; pure allicin, data not shown, read-out: MFC, hyphae) was 30 µg/mL (≈ 185 µM).
For (+)S-Allyl-cysteine sulfoxide [alliin], the “growth of Aspergillus cells treated with one component only” value (Aspergillus fumigatus; alliin without conjugate, or conjugate without alliin) was “not inhibited in their growth”.
